From ChEMBL document CHEMBL1156829 (Proc Natl Acad Sci U S A, 2008)
Several values for one entry are separate records, joined by “and”; a condition that tells them apart may be missing. Equal entries are not always repeated. Structures can show the parent of a compound that is named as a salt.

Key:
[1] = system: Huh-7; assay: (§1) NOVARTIS: Cytotoxicity against human hepatocellular carcinoma cell line (Huh7); assay type: toxicity, cell-based; conditions: huh-7, read-out: CC50
[2] = system: Plasmodium falciparum; assay: NOVARTIS: Inhibition of Plasmodium falciparum 3D7 (drug-susceptible) proliferation in erythrocyte-based infection assay; assay type: functional, organism-based
[3] = system: Plasmodium falciparum; assay: NOVARTIS: Inhibition of Plasmodium falciparum W2 (drug-resistant) proliferation in erythrocyte-based infection assay; assay type: functional, organism-based; conditions: read-out: EC50
[4] = as §1; assay type: toxicity, cell-based, Huh-7; conditions: Huh7 cells (hepatocellular carcinoma cell line)

Row | Compound | CC50 [1] | EC50 [2] | EC50 ([3]; Plasmodium falciparum, W2) [nM] | EC50 [3] | EC50 ([2]; Plasmodium falciparum, 3D7) [nM] | CC50 [4] [nM]
1 | Cn1cc(/C=C/c2cc[n+](C)cc2)c2ccccc21 | 7700 nM | 216 nM | – | – | – | –
2 | CC[n+]1c(/C=C2\Sc3ccccc3N2CCO)ccc2cc(C)ccc21 | > 10000 nM and 56300 nM | – | > 248 | 142 nM | – | –
3 | CCN1C(=Cc2sc3ccccc3[n+]2CC)[Se]c2ccccc21 | 5340 nM and 11800 nM | 156 nM | – | – | 230 | –
4 | CC[n+]1c(/C=C2\Sc3ccc(C)cc3N2CCO)ccc2ccccc21 | > 10000 nM and 29400 nM | – | – | – | – | –
5 | Cc1ccc(N=C2S/C(=C\c3c(Cl)cccc3Cl)C(=O)N2c2ccc(C)c(C)c2)cc1C | > 100000 nM | – | – | 1340 nM and 4810 nM | – | –
6 | Cc1ccc2c(c1)N(C)/C(=C/c1cccc[n+]1C)S2 | > 10000 nM and 22700 nM | 825 nM | – | – | – | –
7 | Cc1cc(C)cc(-n2c(C)cc(/C=C3\SC(=Nc4ccc(Cl)cc4)NC3=O)c2C)c1 | > 100000 nM | – | – | 81.1 nM and 704 nM | – | –
8 | Cc1cc(/C=C2\SC(=Nc3ccccc3)NC2=O)c(C)n1-c1ccccc1 | > 99700 nM | – | – | 12.8 nM and 86.2 nM | – | –
9 | C/C(C=C1Sc2ccc3ccoc3c2N1CCO)=C\c1sc2ccc3occc3c2[n+]1CCO | > 100000 nM | 6890 nM and 1540 nM | – | – | – | –
10 | CC[n+]1c(/C=C2\Sc3cc(NC(C)=O)ccc3N2C)ccc2ccccc21 | > 100000 nM | 373 nM and 72.2 nM | – | – | – | –
11 | CC[n+]1c(/C=C2\Sc3ccc(OC)cc3N2C)ccc2cc(C)ccc21 | > 10000 nM and 21800 nM | – | – | 331 nM and 52 nM | – | –
12 | CN(C)c1ccc(C=Cc2cccc[n+]2C)cc1 | 3030 nM and > 10000 nM | 314 nM | – | – | 248 | –
13 | CCOc1ccc(/C=C2/SC(=Nc3ccccc3)NC2=O)cc1OC | > 100000 nM | 662 nM and 1530 nM | – | – | – | –
14 | CC[C@H]1CN2CCc3cc(OC)c(OC)cc3[C@@H]2C[C@@H]1C[C@H]1NCCc2cc(O)c(OC)cc21 [CEPHAELINE HYDROBROMIDE] | – | – | 4.23 | – | 3.61 | 26.1
15 | CC1(C)N=C(N)N=C(N)N1c1ccc(Cl)cc1 [CHLORCYCLOGUANIL HYDROCHLORIDE] | – | – | 884 | – | 0.986 | 27400
16 | CCN(CC)CCCC(C)Nc1ccnc2cc(Cl)ccc12 (centres undefined) [CHLOROQUINE] | – | – | 83.7 | – | 2.43 | 12400
17 | C=C[C@H]1CN2CC[C@H]1C[C@@H]2[C@@H](O)c1ccnc2ccccc12 [CINCHONINE] | – | – | 110 | – | 95.3 | > 6250
18 | CC(CCCNCCO)Nc1ccnc2cc(Cl)ccc12 (centres undefined) [CLETOQUINE] | – | – | 736 | – | 26.9 | 14000
19 | Clc1ccccc1C(c1ccccc1)(c1ccccc1)n1ccnc1 [CLOTRIMAZOLE] | – | – | 338 | – | 280 | 25800
20 | C[C@@H]1C[C@@H]([C@H](O)CC2CC(=O)NC(=O)C2)C(=O)[C@@H](C)C1 [CYCLOHEXIMIDE] | – | – | 182 | – | 114 | > 100000

Row | Compound | CC50 [1] | EC50 [2] | EC50 ([3]; Plasmodium falciparum, W2) [nM] | EC50 [3] | EC50 ([2]; Plasmodium falciparum, 3D7) [nM] | CC50 [4] [nM]
21 | Cc1cc(N)c2ccccc2[n+]1CCCCCCCCCC[n+]1c(C)cc(N)c2ccccc21 [DEQUALINIUM CHLORIDE] | – | – | 19.7 | – | 61.4 | 31000
22 | N[C@@H](COP(=O)(O)O)C(=O)O [DEXFOSFOSERINE] | – | – | > 1060 | – | 1080 | > 10000
23 | CC(C)[C@@]1(NC(=O)[C@@H]2C[C@@H]3c4cccc5[nH]cc(c45)C[C@H]3N(C)C2)O[C@@]2(O)[C@@H]3CCCN3C(=O)[C@H](Cc3ccccc3)N2C1=O [DIHYDROERGOCRISTINE] | – | – | 449 | – | 1250 | 33100
24 | CCC1CN2CCC1CC2[C@@H](O)c1ccnc2ccc(OC)cc12 (some centres undefined) [DIHYDROQUINIDINE] | – | – | 25.7 | – | 27.3 | > 96000
25 | CS[C@H]1SC[C@H]2C(=O)N(C)[C@@H](C(C)C)C(=O)OC[C@@H](NC(=O)c3cnc4ccccc4n3)C(=O)N[C@@H](C)C(=O)N(C)[C@@H]1C(=O)N(C)[C@@H](C(C)C)C(=O)OC[C@@H](NC(=O)c1cnc3ccccc3n1)C(=O)N[C@@H](C)C(=O)N2C [ECHINOMYCIN] | – | – | 524 | – | 73.7 | > 10000
26 | CCC(Cc1cnc2nc(N)nc(N)c2n1)c1ccc(C(=O)N[C@@H](CCC(=O)O)C(=O)O)cc1 (some centres undefined) [EDATREXATE] | – | – | 108 | – | 14.8 | 30.4
27 | CC[C@H]1CN2CCc3cc(OC)c(OC)cc3[C@@H]2C[C@@H]1C[C@H]1NCCc2cc(OC)c(OC)cc21 [EMETINE] | – | – | 22.9 | – | 10.1 | 116
28 | O=C1c2ccccc2-[n+]2ccc3c([nH]c4ccccc43)c21 [FASCAPLYSIN CHLORIDE] | – | – | 46.4 | – | 74.9 | 589
29 | CN(C)c1ccc(C(=C2C=CC(=[N+](C)C)C=C2)c2ccc(N(C)C)cc2)cc1 [GENTIAN VIOLET] | – | – | 170 | – | 22.1 | 1430
30 | CCn1ccnc1CC1COc2ccccc2O1 (centres undefined) [IMILOXAN HYDROCHLORIDE] | – | – | 443 | – | > 1040 | > 10000
31 | COc1cc2c(cc1O)CC[n+]1cc3c(OC)c(OC)ccc3cc1-2 [JATRORRHIZINE CHLORIDE] | – | – | 1660 | – | 939 | 8940
32 | CCCCN(CCCC)CC(O)c1cc(Cl)cc2c1-c1ccc(Cl)cc1/C2=C/c1ccc(Cl)cc1 (centres undefined) [LUMEFANTRINE] | – | – | 518 | – | 777 | > 10000
33 | O[C@H]1[C@H]2c3cc4c(cc3CN3CCC(=C[C@@H]1O)[C@H]23)OCO4 [LYCORINE] | – | – | 156 | – | 607 | 66100
34 | OC(c1cc(C(F)(F)F)nc2c(C(F)(F)F)cccc12)C1CCCCN1 (centres undefined) [MEFLOQUINE] | – | – | 8.14 | – | 24.8 | 18800
35 | O=C(NCCN1CCOCC1)c1ccc(Cl)cc1 [MOCLOBEMIDE] | – | – | > 1250 | – | > 740 | > 10000
36 | Cc1ccc2ccc3ccc(C)nc3c2n1 [NEOCUPROINE] | – | – | 24.3 | – | 97.1 | > 100000
37 | CCCCCCCCCCCC(OC(=O)C(CCCCN(O)C(C)=O)NC(=O)c1coc(-c2ccccc2O)n1)C(C)C(=O)NC1CCCCN(O)C1=O (centres undefined) [NOCARDIMICIN B] | – | – | 2.24 | – | > 864 | > 10000
38 | C[C@@H]1C[C@H]2CC[C@H](O2)[C@H](C)C(=O)O[C@@H](C)C[C@@H]2CC[C@@H](O2)[C@@H](C)C(=O)O[C@H](C)C[C@H]2CC[C@@H](O2)[C@H](C)C(=O)O[C@@H](C)C[C@@H]2CC[C@@H](O2)[C@@H](C)C(=O)O1 [NONACTIN] | – | – | 359 | – | 433 | 3530
39 | NC(=O)CN1CC(O)CC1=O (centres undefined) [OXIRACETAM] | – | – | 6220 | – | 5960 | 57500
40 | COc1cc2c(cc1OC)-c1cc3ccc(OC)c(OC)c3c[n+]1CC2 [PALMATINE CHLORIDE] | – | – | 766 | – | 697 | > 100000

Row | Compound | CC50 [1] | EC50 [2] | EC50 ([3]; Plasmodium falciparum, W2) [nM] | EC50 [3] | EC50 ([2]; Plasmodium falciparum, 3D7) [nM] | CC50 [4] [nM]
41 | C/C(=C\c1csc(C)n1)[C@@H]1C[C@@H]2O[C@]2(C)CCC[C@H](C)[C@H](O)[C@@H](C)C(=O)C(C)(C)[C@@H](O)CC(=O)O1 [PATUPILONE] | – | – | > 1250 | – | 4.09 | > 6250
42 | N=C(N)c1ccc(OCCCCCOc2ccc(C(=N)N)cc2)cc1 [PENTAMIDINE] | – | – | 68.7 | – | 66.2 | > 6250
43 | O=C1C(=O)c2ncccc2-c2cccnc21 [PHANQUONE] | – | – | 369 | – | 644 | 5910
44 | O=C(Nc1ccc(Cl)cc1)Oc1ccccc1 [PHENYL 4-CHLOROPHENYLCARBAMATE] | – | – | 2010 | – | > 12500 | 51900
45 | COC(=O)[C@]1(C)CC[C@]2(C)CC[C@]3(C)C4=CC=C5C(=CC(=O)C(O)=C5C)[C@]4(C)CC[C@@]3(C)[C@@H]2C1 [PRISTIMERIN] | – | – | > 820 | – | > 1250 | > 6250
46 | CC(C)NCC(O)c1ccc2ccccc2c1 (centres undefined) [PRONETALOL] | – | – | 366 | – | 455 | 13100
47 | CCCNCC(O)COc1ccccc1C(=O)CCc1ccccc1 (centres undefined) [PROPAFENONE] | – | – | 116 | – | 252 | 28900
48 | COc1ccc(C[C@H](N)C(=O)N[C@H]2[C@@H](O)[C@H](n3cnc4c(N(C)C)ncnc43)O[C@@H]2CO)cc1 [PUROMYCIN] | – | – | 328 | – | 611 | 6630
49 | CCc1nc(N)nc(N)c1-c1ccc(Cl)cc1 [PYRIMETHAMINE] | – | – | 14.6 | – | 31.9 | 45600
50 | CCN(CC)CCCC(C)Nc1c2ccc(Cl)cc2nc2ccc(OC)cc12 (centres undefined) [QUINACRINE] | – | – | 14.2 | – | 8.13 | 19600
51 | C=C[C@H]1CN2CC[C@H]1C[C@@H]2[C@@H](O)c1ccnc2ccc(OC)cc12 [QUINIDINE] | – | – | 35.2 | – | 9.59 | 50800
52 | C=C[C@H]1CN2CC[C@H]1C[C@H]2[C@H](O)c1ccnc2ccc(OC)cc12 [QUININE] | – | – | 1320 | – | 993 | > 6250
53 | CN1CCc2cc3c(c4c2C1Cc1ccccc1-4)OCO3 (centres undefined) [ROEMERINE] | – | – | 112 | – | 93.1 | 22300
54 | O=C(O)[C@@H]1C[C@H](CP(=O)(O)O)CCN1 [SELFOTEL] | – | – | > 1210 | – | 1320 | > 5060
55 | CCCCCCCCNC(C)C(O)c1ccc(SC(C)C)cc1 (centres undefined) [SULOCTIDIL] | – | – | 603 | – | 82.4 | 10500
56 | c1ccc(-c2cccc(-c3ccccn3)n2)nc1 [TERPYRIDINE] | – | – | 39.2 | – | 154 | 12600
57 | CC(/C=C/C(=O)NO)=C\[C@@H](C)C(=O)c1ccc(N(C)C)cc1 [TRICHOSTATIN] | – | – | 171 | – | 200 | 1590
58 | O=C1c2ccccc2-n2c1nc1ccccc1c2=O [TRYPTANTHRIN] | – | – | 276 | – | 212 | > 10000
59 | COc1cc2c3c(c4cc(OC)c(OC)cc4c2cc1OC)CN1CCC[C@@H]1C3 [TYLOPHORINE] | – | – | 963 | – | > 509 | > 7910
60 | COc1cc2c(Nc3ccc(Br)cc3F)ncnc2cc1OCC1CCN(C)CC1 [VANDETANIB] | – | – | 1600 | – | 1920 | 37200
